Data taken from PubChem BioAssay (NCI).
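Tested at 5 concentrations; 48 h exposure; 96-well plates; endpoints linearly interpolated, else capped at highest concentration. The concentration for 50% growth inhibition is given as GI50. TGI: total growth inhibition.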

Legend:
Assay in all cases: DTP human tumour cell line panel, 48 h
SNB-75 CNS = system: SNB-75 CNS
OVCAR-8 ovarian = system: OVCAR-8 ovarian
UACC-257 melanoma = system: UACC-257 melanoma
HS 578T breast = system: HS 578T breast
MOLT-4 leukemia = system: MOLT-4 leukemia
SK-MEL-5 melanoma = system: SK-MEL-5 melanoma
EKVX NSCLC = system: EKVX NSCLC
M14 melanoma = system: M14 melanoma
MALME-3M melanoma = system: MALME-3M melanoma
K-562 leukemia = system: K-562 leukemia

`CC(C)(C)OC(=O)N1CCC2(CC1)C(=O)NCN2c1ccccc1` was tested, and the TGI (SNB-75 CNS) was over 100 µM, the TGI (OVCAR-8 ovarian) was over 100 µM and the TGI (UACC-257 melanoma) was over 100 µM. It also gave a TGI (HS 578T breast) of over 100 µM, a TGI (MOLT-4 leukemia) of over 100 µM and a TGI (SK-MEL-5 melanoma) of over 100 µM. It also gave a TGI (EKVX NSCLC) of over 100 µM, a TGI (M14 melanoma) of over 100 µM and a TGI (MALME-3M melanoma) of over 100 µM. For the same compound, the TGI (K-562 leukemia) was over 100 µM.
Compound `C/C(=C\C(=O)O)C(=O)N(C)c1ccccc1I` has a TGI (SNB-75 CNS) of over 100 µM, a TGI (OVCAR-8 ovarian) of over 100 µM and a TGI (UACC-257 melanoma) of over 100 µM. It also gave a TGI (HS 578T breast) of over 100 µM, a TGI (MOLT-4 leukemia) of over 100 µM and a TGI (SK-MEL-5 melanoma) of over 100 µM. For the same compound, the TGI (EKVX NSCLC) was over 100 µM, the TGI (M14 melanoma) was over 100 µM and the TGI (MALME-3M melanoma) was over 100 µM. The TGI (K-562 leukemia) was over 100 µM.
With `CC1CC(C)(C)CC(OCCN2CCCCC2)(c2ccccc2)C1` (centres undefined) the TGI (SNB-75 CNS) was 28.8 µM, the TGI (OVCAR-8 ovarian) was 30.3 µM and the TGI (UACC-257 melanoma) was 24.2 µM. The TGI (HS 578T breast) was 32.4 µM, the TGI (SK-MEL-5 melanoma) was 22.9 µM and the TGI (EKVX NSCLC) was 19.5 µM. The TGI (M14 melanoma) was 14.4 µM, the TGI (MALME-3M melanoma) was 23.4 µM and the TGI (K-562 leukemia) was 28.7 µM.
With `O=[N+]([O-])/C=C/c1cn(CCCCCCCCn2cc(/C=C/[N+](=O)[O-])c3ccccc32)c2ccccc12` the TGI (SNB-75 CNS) was over 10 µM, the TGI (OVCAR-8 ovarian) was over 10 µM and the TGI (UACC-257 melanoma) was over 10 µM. The TGI (HS 578T breast) was over 10 µM, the TGI (MOLT-4 leukemia) was over 10 µM and the TGI (SK-MEL-5 melanoma) was over 10 µM. It also gave a TGI (EKVX NSCLC) of over 10 µM, a TGI (M14 melanoma) of over 10 µM and a TGI (MALME-3M melanoma) of over 10 µM. The TGI (K-562 leukemia) was over 10 µM.
`CN=C1C=C(/N=C2/C=C(N/C(=C\C#N)C(C)(C)O)OC2(C)C)OC1(C)C` showed a TGI (SNB-75 CNS) of over 64 µM, a TGI (OVCAR-8 ovarian) of over 47.2 µM and a TGI (UACC-257 melanoma) of over 100 µM. It also gave a TGI (HS 578T breast) of over 100 µM, a TGI (MOLT-4 leukemia) of over 100 µM and a TGI (SK-MEL-5 melanoma) of over 85.7 µM. For the same compound, the TGI (EKVX NSCLC) was over 100 µM, the TGI (M14 melanoma) was over 78.4 µM and the TGI (MALME-3M melanoma) was over 100 µM. For the same compound, the TGI (K-562 leukemia) was 80.4 µM.
Compound `O=[N+]([O-])C(/C=C(\Cl)[N+](=O)[O-])=C(Nc1ccccc1)Nc1ccccc1` has a TGI (SNB-75 CNS) of 14.1 µM, a TGI (OVCAR-8 ovarian) of 21.6 µM and a TGI (UACC-257 melanoma) of 27.1 µM. It also gave a TGI (HS 578T breast) of 27.7 µM, a TGI (MOLT-4 leukemia) of 6.12 µM and a TGI (SK-MEL-5 melanoma) of 26.2 µM. The TGI (EKVX NSCLC) was 27.4 µM, the TGI (M14 melanoma) was 22.9 µM and the TGI (MALME-3M melanoma) was 21 µM. It also gave a TGI (K-562 leukemia) of over 29.5 µM.
In the case of `CCOC(=O)c1c(-c2ccc(Cl)cc2)c(C#N)c(=S)n(C2OC(COC(C)=O)C(OC(C)=O)C(OC(C)=O)C2OC(C)=O)c1C` (centres undefined), the TGI (SNB-75 CNS) was 99 µM, the TGI (OVCAR-8 ovarian) was over 100 µM and the TGI (UACC-257 melanoma) was over 100 µM. The GI50 (HS 578T breast) was over 100 µM, the TGI (HS 578T breast) was over 100 µM and the TGI (MOLT-4 leukemia) was over 100 µM. For the same compound, the TGI (SK-MEL-5 melanoma) was over 100 µM, the TGI (EKVX NSCLC) was over 100 µM and the TGI (M14 melanoma) was over 100 µM. The TGI (MALME-3M melanoma) was over 100 µM and the TGI (K-562 leukemia) was over 100 µM.
With `c1ccc(CN2CCC(CNc3ncnc4ccccc34)C2)cc1` (centres undefined) the TGI (SNB-75 CNS) was over 100 µM, the TGI (OVCAR-8 ovarian) was over 100 µM and the TGI (HS 578T breast) was over 100 µM. It also gave a TGI (MOLT-4 leukemia) of over 100 µM, a TGI (SK-MEL-5 melanoma) of 82 µM and a TGI (EKVX NSCLC) of over 100 µM. It also gave a TGI (M14 melanoma) of 35.4 µM, a TGI (MALME-3M melanoma) of 43 µM and a TGI (K-562 leukemia) of over 100 µM.
For `CC1=NN(c2cc(Cl)c(S(=O)(=O)O)cc2Cl)C2(C1)C(Cl)C(=O)N2c1nc2ccccc2s1` (centres undefined), the TGI (SNB-75 CNS) was over 100 µM, the TGI (OVCAR-8 ovarian) was over 100 µM and the TGI (UACC-257 melanoma) was over 100 µM. The TGI (HS 578T breast) was over 100 µM, the TGI (MOLT-4 leukemia) was over 100 µM and the TGI (SK-MEL-5 melanoma) was over 100 µM. For the same compound, the TGI (EKVX NSCLC) was over 100 µM, the TGI (M14 melanoma) was over 100 µM and the TGI (MALME-3M melanoma) was over 100 µM. The TGI (K-562 leukemia) was over 100 µM.
`CC1CC[C@@]2(OC1)OC1C[C@H]3[C@@H]4CC=C5C[C@@H](OC6OC(CO)C(OC7OC(CO)C(O)C(O)C7O)C(O)C6OC6OC(C)C(O)C(O)C6O)CC[C@]5(C)[C@H]4CC[C@]3(C)C1[C@@H]2C` (some centres undefined) was tested, and the TGI (SNB-75 CNS) was 5.47 µM, the TGI (OVCAR-8 ovarian) was 1.79 µM and the TGI (UACC-257 melanoma) was 1.02 µM. It also gave a TGI (HS 578T breast) of 1.57 µM, a TGI (SK-MEL-5 melanoma) of 0.977 µM and a TGI (EKVX NSCLC) of 1.13 µM. For the same compound, the TGI (M14 melanoma) was 0.859 µM, the TGI (MALME-3M melanoma) was 1.33 µM and the TGI (K-562 leukemia) was 1.09 µM.
`CCOc1ccc(Nc2nc(N)nc(N)c2N=O)cc1` was tested, and the TGI (SNB-75 CNS) was 91.7 µM, the TGI (OVCAR-8 ovarian) was over 100 µM and the TGI (UACC-257 melanoma) was over 100 µM. For the same compound, the TGI (HS 578T breast) was over 100 µM, the TGI (MOLT-4 leukemia) was 76.6 µM and the TGI (SK-MEL-5 melanoma) was over 100 µM. It also gave a TGI (EKVX NSCLC) of over 100 µM, a TGI (M14 melanoma) of over 100 µM and a TGI (MALME-3M melanoma) of over 100 µM. It also gave a TGI (K-562 leukemia) of over 100 µM.
Work on `CC1OC23CCCCC2C(C#N)(C#N)C1(C#N)C(=N)O3` (centres undefined) yielded a TGI (SNB-75 CNS) of over 100 µM, a TGI (OVCAR-8 ovarian) of 54.1 µM and a TGI (UACC-257 melanoma) of 37.6 µM. It also gave a TGI (HS 578T breast) of 57.8 µM, a TGI (MOLT-4 leukemia) of 90.1 µM and a TGI (SK-MEL-5 melanoma) of 32.3 µM. It also gave a TGI (EKVX NSCLC) of 91.1 µM, a TGI (M14 melanoma) of 40.3 µM and a TGI (MALME-3M melanoma) of 43.5 µM. The TGI (K-562 leukemia) was over 100 µM.
`COC1CCC(OS(C)(=O)=O)C(C)O1` (centres undefined) gave a TGI (SNB-75 CNS) of over 10 µM, a TGI (OVCAR-8 ovarian) of over 10 µM and a TGI (UACC-257 melanoma) of over 10 µM. For the same compound, the TGI (HS 578T breast) was over 10 µM, the TGI (MOLT-4 leukemia) was over 10 µM and the TGI (SK-MEL-5 melanoma) was over 10 µM. For the same compound, the TGI (EKVX NSCLC) was over 10 µM, the TGI (M14 melanoma) was over 10 µM and the TGI (MALME-3M melanoma) was over 10 µM. The TGI (K-562 leukemia) was over 10 µM.
Work on `O=c1[nH]c(NCCCCCO)nc2nc[nH]c12` yielded a TGI (SNB-75 CNS) of over 100 µM, a TGI (OVCAR-8 ovarian) of over 100 µM and a TGI (UACC-257 melanoma) of over 100 µM. The TGI (HS 578T breast) was over 100 µM, the TGI (MOLT-4 leukemia) was over 100 µM and the TGI (SK-MEL-5 melanoma) was over 100 µM. For the same compound, the TGI (EKVX NSCLC) was over 100 µM, the TGI (M14 melanoma) was over 100 µM and the TGI (MALME-3M melanoma) was over 100 µM. It also gave a TGI (K-562 leukemia) of over 100 µM.
`CC1=NN(C(=O)CC(=O)Nc2cccc(C)c2)C(=O)C1N=Nc1ccc(C(=O)O)cc1` (centres undefined) was tested, and the TGI (SNB-75 CNS) was over 100 µM, the TGI (OVCAR-8 ovarian) was over 100 µM and the TGI (UACC-257 melanoma) was over 100 µM. For the same compound, the TGI (HS 578T breast) was over 100 µM, the TGI (SK-MEL-5 melanoma) was over 100 µM and the TGI (EKVX NSCLC) was over 100 µM. The TGI (M14 melanoma) was over 100 µM, the TGI (MALME-3M melanoma) was over 100 µM and the TGI (K-562 leukemia) was over 100 µM.
`CCCCCCCCCCCCCCCC[N+](C)(C)CCl` showed a TGI (SNB-75 CNS) of 5.18 µM, a TGI (OVCAR-8 ovarian) of 7.43 µM and a TGI (UACC-257 melanoma) of 21.1 µM. For the same compound, the TGI (HS 578T breast) was 5.26 µM, the TGI (SK-MEL-5 melanoma) was 2.94 µM and the TGI (EKVX NSCLC) was 22.8 µM. For the same compound, the TGI (M14 melanoma) was 6.38 µM and the TGI (MALME-3M melanoma) was 7.38 µM.
With `Cc1cc(S(=O)(=O)NC2=NCc3c(F)cccc3N2)c(S)cc1Cl` the TGI (SNB-75 CNS) was over 100 µM, the TGI (OVCAR-8 ovarian) was over 100 µM and the TGI (UACC-257 melanoma) was over 100 µM. For the same compound, the TGI (HS 578T breast) was over 100 µM, the TGI (MOLT-4 leukemia) was over 100 µM and the TGI (SK-MEL-5 melanoma) was over 100 µM. It also gave a TGI (EKVX NSCLC) of over 100 µM, a TGI (M14 melanoma) of over 100 µM and a TGI (MALME-3M melanoma) of over 100 µM.
